From article PMC8482815, “Targeting Host Glycolysis as a Strategy for Antimalarial Development” (Frontiers in Cellular and Infection Microbiology, 2021)
Several values for one entry are separate records, joined by “and”; a condition that tells them apart may be missing. Equal values may be shown once.

Tested on: human erythrocytes
Assay: Untargeted metabolomics and 13C-glucose tracing of enolase inhibitor treated erythrocytes
Format: cell-based
Conditions: 1h
Experimental: Freshly collected erythrocytes were washed, resuspended to 10% hematocrit in buffer [25mM HEPES (pH 7.4), 120mM NaCl, 5.4mM KCl, 1.8mM CaCl2, and 1mM NaH2PO4], incubated for 1 hour at 37°C, then centrifuged at 2000xg for 5 minutes at 4°C, resuspended in fresh wash buffer to 30-40% hematocrit, and split into 210µL aliquots of packed erythrocytes. […] All samples were incubated at 37°C shaking at 500 RPM. Triplicate samples of supernatants and packed erythrocytes were collected at 0, 0.5, 1, and 6-hour intervals and snap-frozen in liquid N2.
RBC and media samples were extracted at 1:10 and 1:20 dilutions, respectively, in 5:3:2 MeOH : MeCN:H2O v/v/v, and supernatants analyzed on a Thermo Vanquish UHPLC coupled to a Thermo Q Exactive mass spectrometer, as extensively described ([Nemkov et al., 2015]; [Nemkov et al., 2017]). The extraction buffer was supplemented with 40uM 3-^13C lactate to allow absolute quantification of lactate isotopologues, including lactate generated via glycolysis ([1,2,3-^13C3] enriched) vs. the pentose phosphate pathway ([2,3-^13C2] enriched), as described ([Reisz et al., 2016]). Metabolite assignments, peak area integration and isotopologues distributions were determined using Maven (Princeton University) ([Nemkov et al., 2015]; [Nemkov et al., 2017]).
Data were auto-scaled and normalized to zero-hour time points. Metabolites were removed from the dataset if greater than 50% of the samples contained missing values or the relative standard deviation among replicates exceeded 25%. Additionally, data was filtered using the interquartile range to reduce near-constant values from the experiment by 5%.
A principal component analysis of preprocessed data was plotted with the 95% confidence interval minimum volume enclosing ellipsoid for each respective group (MetaboAnalyst, cluster, plotly). A two-way repeated measures analysis of variance (ANOVA) was performed with multiple comparisons corrected for using a false discovery rate p-value cutoff of 0.05. Metabolite-Pathway analysis was performed using the R package of MetaboAnalyst, as previously described ([Xia and Wishart, 2010]). Metabolite-Protein nodal analysis was performed using omicsnet.ca and as previously described ([Zhou and Xia, 2018]).

[1] = treated erythrocytes, one value per replicate sample, polarity +
[2] = treated erythrocytes, one value per replicate sample, polarity -
[3] = treated erythrocytes, replicate samples

CC(C)(C)C(=O)OCOP(=O)(OCOC(=O)C(C)(C)C)C1CCCN(O)C1=O (stereo not shown) [POMHEX]
AMP level (metabolomics signal) (replicate samples): 1.96E+06 and 2.60E+06 and 1.22E+06 | ATP level (metabolomics signal) (replicate samples): 1.32E+04 and 2.11E+04 and 3.43E+04 | Adenine level (metabolomics signal) (replicate samples): 1.75E+05 and 1.63E+05 and 1.61E+05 | Cytosine level (metabolomics signal) (replicate samples): 4.76E+05 and 3.43E+05 and 2.67E+05 | L-alanine level (metabolomics signal) (replicate samples): 1.12E+07 and 9.08E+06 and 1.05E+07 | L-arginine level (metabolomics signal) (replicate samples): 4.18E+06 and 1.19E+07 and 3.04E+06 | L-asparagine level (metabolomics signal) (replicate samples): 7.53E+06 and 8.13E+06 and 7.16E+06 | L-aspartate level (metabolomics signal) (replicate samples): 2.28E+07 and 2.29E+07 and 1.75E+07 | L-cysteine level (metabolomics signal) (replicate samples): 2.57E+05 and 1.28E+06 and 6.21E+05 | L-glutamate level (metabolomics signal) (replicate samples): 2.16E+07 and 2.10E+07 and 1.73E+07 | L-glutamine level (metabolomics signal) (replicate samples): 6.97E+07 and 8.81E+07 and 6.57E+07 | L-histidine level (metabolomics signal) (replicate samples): 1.22E+06 and 1.29E+06 and 1.07E+06 | L-isoleucine level (metabolomics signal) (replicate samples): 9.19E+06 and 1.31E+07 and 8.52E+06 | L-leucine level (metabolomics signal) (replicate samples): 1.97E+08 and 2.85E+08 and 1.36E+08 | L-lysine level (metabolomics signal) (replicate samples): 1.46E+06 and 1.53E+06 and 1.05E+06 | L-methionine level (metabolomics signal) (replicate samples): 1.81E+07 and 2.91E+07 and 1.59E+07 | L-phenylalanine level (metabolomics signal) (replicate samples): 1.22E+07 and 1.56E+07 and 8.20E+06 | L-proline level (metabolomics signal) (replicate samples): 4.14E+07 and 6.25E+07 and 4.63E+07 | L-serine level (metabolomics signal) (replicate samples): 6.19E+06 and 5.89E+06 and 5.91E+06 | L-threonine level (metabolomics signal) (replicate samples): 7.85E+06 and 8.68E+06 and 7.03E+06 | L-tryptophan level (metabolomics signal) (replicate samples): 4.00E+06 and 3.89E+06 and 2.67E+06 | L-tyrosine level (metabolomics signal) (replicate samples): 2.39E+07 and 3.62E+07 and 2.21E+07 | L-valine level (metabolomics signal) (replicate samples): 1.59E+08 and 1.34E+08 and 1.66E+08 | dCMP level (metabolomics signal) (replicate samples): 6.47E+03 and 1.42E+04 and 8.65E+03 | dTMP level (metabolomics signal) (replicate samples): 6.95E+05 and 1.44E+06 and 5.66E+05 | glycine level (metabolomics signal) (replicate samples): 2.53E+06 and 2.52E+06 and 2.98E+06 | N-Acyl-D-aspartate (C06380) metabolite signal [1]: 1.39E+05 and 1.05E+05 and 7.72E+04 | Poly-gamma-D-glutamate (C05723) metabolite signal [1]: 4.55E+07 and 6.01E+07 and 4.31E+07 | D-Ribitol 5-phosphate (C01068) metabolite signal [2]: 1.36E+04 and 3.79E+04 and 1.11E+04 | D-glucono-1,5-lactone (C00198) metabolite signal [2]: 3.37E+05 and 3.01E+05 and 3.48E+05 | L-Noradrenaline (C00547) metabolite signal [2]: 3.29E+04 and 4.04E+04 and 2.83E+04 | Oxalosuccinate (C05379) metabolite signal [2]: 9.85E+04 and 9.72E+04 and 1.00E+05 | Pyridoxamine (C00534) metabolite signal [2]: 1.26E+04 and 1.81E+04 and 8.56E+03 | Thioredoxin disulfide (C00343) metabolite signal [2]: 3.49E+04 and 1.17E+05 and 2.13E+04 | 1-4-beta-D-Xylan (metabolite signal) [3]: 1.76E+05 and 2.60E+05 and 1.54E+05 | 2-Hydroxyglutarate/Citramalate (C02630) metabolite signal [3]: 4.45E+04 and 4.76E+04 and 4.24E+04 | 5-6-Dihydrothymine (C00906) metabolite signal [3]: 2.57E+05 and 3.03E+05 and 1.85E+05 | 5-10-Methenyltetrahydrofolate (metabolite signal) [3]: 1.81E+05 and 1.74E+05 and 1.10E+05 | 5-Hydroxyisourate (C11821) metabolite signal [3]: 4.87E+06 and 2.62E+06 and 4.93E+06 | 5-L-Glutamyl-taurine (metabolite signal) [3]: 1.73E+05 and 9.38E+04 and 2.11E+05 | 5-Oxoproline (metabolite signal) [3]: 5.99E+05 and 6.10E+05 and 6.21E+05 | (S)(+)-Allantoin (C02350) metabolite signal [3]: 1.83E+04 and 1.70E+04 and 1.48E+04 | Allantoate (C00499) metabolite signal [3]: 1.28E+05 and 4.06E+05 and 1.02E+05 | Ascorbate (metabolite signal) [3]: 6.30E+04 and 1.08E+05 and 4.97E+04 | CMP-N-acetylneuraminate (metabolite signal) [3]: 6.05E+03 and 4.63E+03 and 2.62E+03 | Carnosine (metabolite signal) [3]: 2.09E+05 and 1.71E+05 and 1.90E+05 | Citrate (C00158) metabolite signal [3]: 1.89E+04 and 2.10E+04 and 1.46E+04 | Creatine (metabolite signal) [3]: 2.57E+08 and 2.12E+08 and 2.30E+08 | Creatinine (metabolite signal) [3]: 2.38E+06 and 2.51E+06 and 2.49E+06 | Cys-Gly (metabolite signal) [3]: 7.57E+05 and 1.20E+06 and 8.09E+05 | D-Glucosamine (metabolite signal) [3]: 6.03E+05 and 3.34E+05 and 1.05E+06 | D-Glucose (C00031) metabolite signal [3]: 4.53E+06 and 6.78E+06 and 3.73E+06 | D-Ribose (C00121) metabolite signal [3]: 1.22E+05 and 1.96E+05 and 1.18E+05 | Dehydroascorbate (metabolite signal) [3]: 4.03E+04 and 3.78E+04 and 2.56E+04 | Dihydrofolate (metabolite signal) [3]: 6.94E+05 and 1.83E+06 and 6.55E+05 | Dimethylglycine (metabolite signal) [3]: 1.12E+06 and 8.60E+05 and 1.04E+06 | Diphosphate (C00013) metabolite signal [3]: 1.40E+04 and 3.85E+04 and 1.73E+04 | Fumarate (C00122) metabolite signal [3]: 8.16E+04 and 8.08E+04 and 7.78E+04 | Glutathione (C00051) metabolite signal [3]: 5.06E+07 and 7.77E+07 and 5.74E+07 | Glutathione disulfide (metabolite signal) [3]: 7.45E+04 and 7.57E+04 and 5.41E+04 | Hypoxanthine (C00262) metabolite signal [3]: 6.66E+03 and 1.71E+04 and 1.69E+04 | IMP (C00130) metabolite signal [3]: 7.81E+04 and 9.15E+04 and 6.22E+04 | Inosine (C00294) metabolite signal [3]: 6.22E+04 and 5.44E+04 and 6.05E+04 | L-Citrulline (metabolite signal) [3]: 5.24E+06 and 4.00E+06 and 4.92E+06 | L-Homoserine (metabolite signal) [3]: 1.76E+05 and 2.52E+05 and 1.58E+05 | Lactate (C01432) metabolite signal [3]: 7.95E+06 and 9.12E+06 and 7.54E+06 | Malate (C00149) metabolite signal [3]: 6.76E+04 and 6.17E+04 and 6.25E+04 | Mannitol (C00392) metabolite signal [3]: 1.25E+05 and 1.54E+05 and 1.02E+05 | N-Acetylneuraminate (metabolite signal) [3]: 1.98E+04 and 1.32E+04 and 1.62E+04 | N-Glycoloyl-neuraminate (metabolite signal) [3]: 7.97E+04 and 1.42E+05 and 5.68E+04 | NAD+ (C00003) metabolite signal [3]: 1.57E+04 and 4.46E+04 and 2.15E+04 | Nicotinamide (C00153) metabolite signal [3]: 4.80E+07 and 5.08E+07 and 4.18E+07 | Ornithine (metabolite signal) [3]: 1.57E+06 and 1.30E+06 and 1.16E+06 | Oxaloacetate (C00036) metabolite signal [3]: 3.29E+04 and 5.49E+04 and 3.03E+04 | Phosphoserine (metabolite signal) [3]: 0.00E+00 (2×) and 1.77E+04 | Putrescine (metabolite signal) [3]: 4.04E+04 and 3.04E+04 and 2.63E+04 | Pyridoxal (C00250) metabolite signal [3]: 5.25E+04 and 8.23E+04 and 7.59E+04 | Pyruvate (C00022) metabolite signal [3]: 5.39E+05 and 7.10E+05 and 4.33E+05 | S-Glutathionyl-L-cysteine (metabolite signal) [3]: 5.57E+04 and 6.02E+04 and 1.82E+04 | Sedoheptulose 1-phosphate (C06222) metabolite signal [3]: 2.81E+03 and 3.84E+03 and 2.38E+03 | Spermidine (metabolite signal) [3]: 7.32E+06 and 6.78E+06 and 6.25E+06 | Spermine (metabolite signal) [3]: 7.58E+06 and 7.10E+06 and 6.92E+06 | Succinate (C00042) metabolite signal [3]: 6.13E+04 and 9.94E+04 and 5.79E+04 | Thymidine (C00214) metabolite signal [3]: 1.12E+04 and 1.26E+04 and 8.73E+03 | UDP (C00015) metabolite signal [3]: 5.07E+04 and 1.42E+05 and 2.88E+04 | UDP-N-acetyl-D-glucosamine (metabolite signal) [3]: 2.55E+03 and 3.51E+03 and 2.64E+03 | UDP-glucose (C00029) metabolite signal [3]: 5.62E+03 and 1.08E+04 and 6.04E+03 | Urate (C00366) metabolite signal [3]: 2.31E+04 and 2.80E+04 and 2.12E+04 | Xanthine (C00385) metabolite signal [3]: 1.88E+05 and 1.43E+05 and 1.48E+05 | alpha-D-Glucosamine 1-phosphate (metabolite signal) [3]: 8.86E+05 and 4.48E+05 and 1.21E+06 | alpha-D-Ribose 1-phosphate (C00620) metabolite signal [3]: 2.29E+04 and 4.78E+04 and 2.91E+04 | gamma-Glutamyl-gamma-aminobutyrate (metabolite signal) [3]: 9.00E+04 and 5.89E+04 and 7.26E+04 | gamma-L-Glutamyl-D-alanine (metabolite signal) [3]: 1.81E+04 and 1.74E+04 and 1.70E+04 | gamma-L-Glutamyl-L-cysteine (metabolite signal) [3]: 1.43E+04 and 3.68E+04 and 6.67E+03
